Results from patent US20230220021A1, “CYCLIC PEPTIDE INHIBITORS OF PSD-95 AND USES THEREOF” (University of Copenhagen, priority 2020, published 2023).
Where a SMILES comes first, the peptide text is derived from it. [ ]: non-standard residue; d: D form.

Legend:
PSD-95-PDZ2 [1] = target: T1, PSD-95-PDZ2 (Homo sapiens, UniProt P78352, V178C); assay: SPOT peptide array screening with TAMRA labelled PSD-95-PDZ2; assay type: binding; details: SPOT array, TAMRA labelled PSD-95-PDZ2-V178C, normalized to WT
T1 construct: screened with the TAMRA labelled PSD-95-PDZ2-V178C domain; 7xHis (N); made in house
Method: SPOT peptide array synthesis. To generate the cyclic nNOSβ-hairpin arrays, we used the Intavis MultiPep spotter (Intavis Bioanalytical instruments). The membranes employed in this assay were SynthoPlan APEG CE (standard amino-modified acid stable sellulose membrane with a PEG-spacer), 10×15 cm with a loading of 400 nmol cm^−2. Solutions of 0.3 M Fmoc-AA-OH and 0.3 M Oxyma Pure were prepared in N-methyl-2-pyrrolidone (NMP). The activator solution consisted of 0.3 M DIC and 0.3 M of 2,4,6-trimethylpyridine (Collidine) in NMP. The capping solution consisted of a solution of 1 M acetic anhydride and 0.05 M of 4-dimethylaminopyridine (DMAP) in NMP. The deprotection solution consisted of 20% piperidine in NMP. AA couplings were performed 1 h,4 times. Deprotection of the Fmoc groups was performed 15min,2 times. Membrane washing between couplings or deprotections was performed with NMP and ethanol. Elongation of peptides in cellulose membrane was started by coupling first the Fmoc-PEG(9)-OH (Iris Biotech) and the subsequent mixture of Fmoc-Gly-OH (25%) and Boc-Gly-OH (75%) to lower the total loading of the membrane. Afterwards, the resin was capped with the capping solution and extensively washed and soaked in bromophenol blue (BPB) as a quality control to reveal the SPOTS with a functional amino group. Then, we coupled the quasi-orthogonal group Fmoc-Glu-PP, and carried out the rest of the synthesis until peptide completion. The cellulose bound linear peptides were finally treated with a solution of 95% DCM, 3% TIPS and 2% TFA 3 times, 20 min. to remove the quasi-orthogonal group. Afterwards, the membrane was washed 5 times with DCM and neutralized with 5% DIPEA in DCM. The membrane was then washed 5 more times with DCM, 5 times with NMP and cyclized with 0.3M PyAOP and 0.3M of DIPEA in DMF for 3 h or overnight. Finally, the membrane was dried with DCM and the side-chain protecting groups were cleaved with the standard deprotection cocktail (95% TFA, 2.5% H2O and 2.5% TIPS) or with reagent K [TFA 82.5%, phenol 5%, H2O 5%, thioanisole 5% and 1,2-ethanedithiol (EDT) 2.5%] for 3 h.
SPOT membrane screening. Membranes were incubated with PBS pH 7.2+0.5% bovine serum albumin (BSA) for 1 h. After the incubation period, the membrane was dried and scanned with an Amershan Typhoon scanner, at 400V, Cy3 wavelength (532 nm). A TIF file of the screening and a file with the blank values were generated using the Image Quant software. Afterwards, a solution of 50 nM of TAMRA labelled PSD-95-PDZ2 domain was prepared in PBS pH 7.2+0.5% BSA and was added to the membrane. The membrane was left incubating in a Polymax 1040 rocking table for 1 h protected from the light. Passed the incubation time, the excess of labelled protein was removed by washing the membrane 3 times with PBS+0.5% BSA. Finally, the membrane fluorescence values were measured with the Amershan Typhoon scanner at 400V, Cy3 wavelength (532 nm). Using the Image Quant software, the TIF image of the screening and a file with the fluorescence values of the peptides with the TAMRA labelled PSD-95-PDZ2 were generated. The blank was then subtracted from the fluorescence values of the peptides screened against the TAMRA labelled PSD-95-PDZ2.
A deep mutational scan was performed on the WT scaffold, exchanging each AA to the remaining 19 L-AAs. Each array contained three copies of the individual peptides as technical replicates. Additionally, three controls were included in the design: the cyclic nNOS β-hairpin WT control (positive control), a linear nNOS peptide (cyclization control) and a cyclic nNOS β-hairpin with a F111V substitution (negative control previously tested in FP competition assays). For array screening, a mutation in PSD-95-PDZ2 residue V178 (PSD-95-PDZ2-V178C) was introduced, which was subsequently labelled with TAMRA maleimide. […]

PSD-95-PDZ2 [2] = target: T2, PSD-95-PDZ2 (Homo sapiens, UniProt P78352); assay: Fluorescence polarization (FP) competition assay against cyclic nNOS TAMRA probe; assay type: binding; details: for Ki: FP competition, cyclic nNOS TAMRA probe, mean of triplicates, N.B. = not binding, read-out: Ki; for Relative Ki (Ki mut/Ki WT): FP inhibition constant normalized to WT value
T2 construct: 7xHis (N); made in house; host or cells: Escherichia coli B21 pLys (for the mutants, 'as previously described')
Method: Fluorescence polarization (FP). FP assays were performed in a 384-well plate format. Fluorescence polarization was measured using a Safire 2 plate reader. The instrument Z-factor was optimized for each assay. The G-factor was calibrated to an initial milli polarization value of 20. The wavelength for the cyclic nNOS β-hairpin TAMRA probe was: ex: 530 nm and em: 580 nm. Every measurement was performed in NaPI 50 mM, 50 mM NaCl and 1% BSA at pH 7.2, 25° C. […] The curves were done in triplicates. Then, the polarization was fitted into a one-site binding model using Prism software 8.0 (GraphPad), from which the Kd can be measured. […] The mili polarization (mP) values were plotted as a function of peptide concentration and fitted to a sigmoidal dose-response curve using Prism software 8.0 (GraphPad). The Ki values were calculated according to Nikolovska-Coleska Z. et al.^40-41

CC[C@H](C)[C@@H]1NC(=O)[C@H]([C@@H](C)O)NC(=O)[C@H](CCCCN)NC(=O)[C@@H]2CCCN2C(=O)[C@H]([C@@H](C)O)NC(=O)[C@@H]2CCCN2C(=O)[C@H](CC(=O)O)NC(=O)CNC(=O)[C@H]([C@@H](C)O)NC(=O)[C@H](Cc2ccccc2)NC(=O)[C@H]([C@@H](C)O)NC(=O)[C@H]([C@@H](C)O)NC(=O)[C@H](CCC(=O)O)NC(=O)[C@H](CC(C)C)NC(=O)[C@H](Cc2c[nH]cn2)NC(=O)[C@H]([C@@H](C)O)NC(=O)[C@H](CCC(N)=O)NC(=O)CNC(=O)[C@H]2CCCN2C(=O)[C@H](CCC(N)=O)NC(=O)[C@H]([C@@H](C)O)NC(=O)[C@H](C(C)C)NC(=O)[C@H](CCCNC(=N)N)NC1=O [compound 30] (cyclo(THLETTFTGDPTPKTIRVTQ[dP]GQ))
Normalized SPOT fluorescence (Mut/WT) (PSD-95-PDZ2 [1]): 2.33 | Ki (PSD-95-PDZ2 [2]): 420 nM | Relative Ki (Ki mut/Ki WT) (PSD-95-PDZ2 [2]): 0.28

CC[C@H](C)[C@@H]1NC(=O)[C@H]([C@@H](C)O)NC(=O)[C@H](CCCCN)NC(=O)[C@@H]2CCCN2C(=O)[C@H]([C@@H](C)O)NC(=O)CNC(=O)[C@H](CC(=O)O)NC(=O)CNC(=O)[C@H]([C@@H](C)O)NC(=O)[C@H](Cc2ccccc2)NC(=O)[C@H](CC(=O)O)NC(=O)[C@H]([C@@H](C)O)NC(=O)[C@H](CCC(=O)O)NC(=O)[C@H](CC(C)C)NC(=O)[C@H](Cc2c[nH]cn2)NC(=O)[C@H]([C@@H](C)O)NC(=O)[C@H](CCC(N)=O)NC(=O)CNC(=O)[C@H]2CCCN2C(=O)[C@H](CCC(N)=O)NC(=O)[C@H]([C@@H](C)O)NC(=O)[C@H](C(C)C)NC(=O)[C@H](CCCNC(=N)N)NC1=O [compound 54] (cyclo(THLETDFTGDGTPKTIRVTQ[dP]GQ))
Normalized SPOT fluorescence (Mut/WT) (PSD-95-PDZ2 [1]): 0.16 | Ki (PSD-95-PDZ2 [2]): 1420 nM | Relative Ki (Ki mut/Ki WT) (PSD-95-PDZ2 [2]): 0.95

CC[C@H](C)[C@@H]1NC(=O)[C@H]([C@@H](C)O)NC(=O)[C@H](CCCCN)NC(=O)[C@@H]2CCCN2C(=O)[C@H]([C@@H](C)O)NC(=O)CNC(=O)[C@H](CC(=O)O)NC(=O)CNC(=O)[C@H]([C@@H](C)O)NC(=O)[C@H](C(C)C)NC(=O)[C@H]([C@@H](C)O)NC(=O)[C@H]([C@@H](C)O)NC(=O)[C@H](CCC(=O)O)NC(=O)[C@H](CC(C)C)NC(=O)[C@H](Cc2c[nH]cn2)NC(=O)[C@H]([C@@H](C)O)NC(=O)[C@H](CCC(N)=O)NC(=O)CNC(=O)[C@H]2CCCN2C(=O)[C@H](CCC(N)=O)NC(=O)[C@H]([C@@H](C)O)NC(=O)[C@H](C(C)C)NC(=O)[C@H](CCCNC(=N)N)NC1=O [compound 21] (cyclo(THLETTVTGDGTPKTIRVTQ[dP]GQ))
Normalized SPOT fluorescence (Mut/WT) (PSD-95-PDZ2 [1]): 0.05 | Relative Ki (Ki mut/Ki WT) (PSD-95-PDZ2 [2]): 51.60

CC[C@H](C)[C@@H]1NC(=O)[C@H]([C@@H](C)O)NC(=O)[C@H](CCCCN)NC(=O)[C@@H]2CCCN2C(=O)[C@H]([C@@H](C)O)NC(=O)CNC(=O)[C@H](CC(=O)O)NC(=O)CNC(=O)[C@H]([C@@H](C)O)NC(=O)[C@H](Cc2ccccc2)NC(=O)[C@H](C)NC(=O)[C@H]([C@@H](C)O)NC(=O)[C@H](CCC(=O)O)NC(=O)[C@H](CC(C)C)NC(=O)[C@H](Cc2c[nH]cn2)NC(=O)[C@H]([C@@H](C)O)NC(=O)[C@H](CCC(N)=O)NC(=O)CNC(=O)[C@H]2CCCN2C(=O)[C@H](CCC(N)=O)NC(=O)[C@H]([C@@H](C)O)NC(=O)[C@H](C(C)C)NC(=O)[C@H](CCCNC(=N)N)NC1=O [compound 60] (cyclo(THLETAFTGDGTPKTIRVTQ[dP]GQ))
Normalized SPOT fluorescence (Mut/WT) (PSD-95-PDZ2 [1]): 0.66 | Relative Ki (Ki mut/Ki WT) (PSD-95-PDZ2 [2]): 2.62

CC[C@H](C)[C@@H]1NC(=O)[C@H]([C@@H](C)O)NC(=O)[C@H](CCCCN)NC(=O)[C@@H]2CCCN2C(=O)[C@H]([C@@H](C)O)NC(=O)CNC(=O)[C@H](CC(=O)O)NC(=O)CNC(=O)[C@H]([C@@H](C)O)NC(=O)[C@H](Cc2ccccc2)NC(=O)[C@H]([C@@H](C)O)NC(=O)[C@H]([C@@H](C)O)NC(=O)[C@H](CCC(=O)O)NC(=O)[C@H](CC(C)C)NC(=O)[C@H](Cc2c[nH]cn2)NC(=O)[C@H](C)NC(=O)[C@H](CCC(N)=O)NC(=O)CNC(=O)[C@H]2CCCN2C(=O)[C@H](CCC(N)=O)NC(=O)[C@H]([C@@H](C)O)NC(=O)[C@H](C(C)C)NC(=O)[C@H](CCCNC(=N)N)NC1=O [compound 55] (cyclo(AHLETTFTGDGTPKTIRVTQ[dP]GQ))
Normalized SPOT fluorescence (Mut/WT) (PSD-95-PDZ2 [1]): 0.97 | Ki (PSD-95-PDZ2 [2]): 1500 nM | Relative Ki (Ki mut/Ki WT) (PSD-95-PDZ2 [2]): 1.00

CC[C@H](C)[C@@H]1NC(=O)[C@H]([C@@H](C)O)NC(=O)[C@H](CCCCN)NC(=O)[C@@H]2CCCN2C(=O)[C@H]([C@@H](C)O)NC(=O)CNC(=O)[C@H](CC(=O)O)NC(=O)[C@H](C)NC(=O)[C@H]([C@@H](C)O)NC(=O)[C@H](Cc2ccccc2)NC(=O)[C@H]([C@@H](C)O)NC(=O)[C@H]([C@@H](C)O)NC(=O)[C@H](CCC(=O)O)NC(=O)[C@H](CC(C)C)NC(=O)[C@H](Cc2c[nH]cn2)NC(=O)[C@H]([C@@H](C)O)NC(=O)[C@H](CCC(N)=O)NC(=O)CNC(=O)[C@H]2CCCN2C(=O)[C@H](CCC(N)=O)NC(=O)[C@H]([C@@H](C)O)NC(=O)[C@H](C(C)C)NC(=O)[C@H](CCCNC(=N)N)NC1=O [compound 63] (cyclo(THLETTFTADGTPKTIRVTQ[dP]GQ))
Normalized SPOT fluorescence (Mut/WT) (PSD-95-PDZ2 [1]): 0.68 | Relative Ki (Ki mut/Ki WT) (PSD-95-PDZ2 [2]): 3.03

CC[C@H](C)[C@@H]1NC(=O)[C@H]([C@@H](C)O)NC(=O)[C@H](CCCCN)NC(=O)[C@@H]2CCCN2C(=O)[C@H](CCC(=O)O)NC(=O)CNC(=O)[C@H](CC(=O)O)NC(=O)CNC(=O)[C@H]([C@@H](C)O)NC(=O)[C@H](Cc2ccccc2)NC(=O)[C@H]([C@@H](C)O)NC(=O)[C@H]([C@@H](C)O)NC(=O)[C@H](CCC(=O)O)NC(=O)[C@H](CC(C)C)NC(=O)[C@H](Cc2c[nH]cn2)NC(=O)[C@H]([C@@H](C)O)NC(=O)[C@H](CCC(N)=O)NC(=O)CNC(=O)[C@H]2CCCN2C(=O)[C@H](CCC(N)=O)NC(=O)[C@H]([C@@H](C)O)NC(=O)[C@H](C(C)C)NC(=O)[C@H](CCCNC(=N)N)NC1=O [compound 33] (cyclo(THLETTFTGDGEPKTIRVTQ[dP]GQ))
Normalized SPOT fluorescence (Mut/WT) (PSD-95-PDZ2 [1]): 1.37 | Ki (PSD-95-PDZ2 [2]): 420 nM | Relative Ki (Ki mut/Ki WT) (PSD-95-PDZ2 [2]): 0.28

CC[C@H](C)[C@@H]1NC(=O)[C@H]([C@@H](C)O)NC(=O)[C@H](CCCCN)NC(=O)[C@@H]2CCCN2C(=O)[C@H]([C@@H](C)O)NC(=O)CNC(=O)[C@H](CC(=O)O)NC(=O)CNC(=O)[C@H]([C@@H](C)O)NC(=O)[C@H](Cc2ccccc2)NC(=O)[C@H]([C@@H](C)O)NC(=O)[C@H]([C@@H](C)O)NC(=O)[C@H](CCC(=O)O)NC(=O)[C@H](CC(C)C)NC(=O)[C@H](Cc2c[nH]cn2)NC(=O)[C@H](Cc2ccc(O)cc2)NC(=O)[C@H](CCC(N)=O)NC(=O)CNC(=O)[C@H]2CCCN2C(=O)[C@H](CCC(N)=O)NC(=O)[C@H]([C@@H](C)O)NC(=O)[C@H](C(C)C)NC(=O)[C@H](CCCNC(=N)N)NC1=O [compound 24] (cyclo(YHLETTFTGDGTPKTIRVTQ[dP]GQ))
Normalized SPOT fluorescence (Mut/WT) (PSD-95-PDZ2 [1]): 1.32 | Ki (PSD-95-PDZ2 [2]): 1470 nM | Relative Ki (Ki mut/Ki WT) (PSD-95-PDZ2 [2]): 0.98
